The experiment has as its system African Green monkeys. Description: IOP after intravitreal injection in African Green monkeys, PBS in the fellow eye as control. It counts as in vivo, African Green monkey. Here is the method:
Eight African Green monkeys were screened to identify 4 animals with high-normal IOP. Animals were anesthetized with ketamine 10 mg/kg and Xylazine 0.5 mg/kg. Bimatoprost acid 100 ng in 50 μl was injected intravitreally in one eye through a 30-gauge syringe using a shelved technique, and 50 μl of phosphate buffered saline (PBS) was injected into the fellow eye as a concurrent control on days 0, 1, 2 at 8:30 pm. The bimatoprost acid dose was escalated to 200 ng in 100 μl, with the same volume of PBS given to the fellow eye, on days 3 (8:30 pm) and 4 (5:30 pm). IOP was measured with a Tonovet tonometer at 8:30 am, 11:30 am and 8:30 pm on day 1; 8:30 am, 11:30 am and 5:30 pm on day 4; and at 8:30 am on days 2, 3 and 5. The person measuring the IOP was masked to treatment assignment. Slit lamp exams were performed on day 0, 1 and 5. OCTs were performed at baseline and day 5.

The record followed here is patent publication US20230158161A1, “DRUG DELIVERY SYSTEMS COMPRISING AN INTRAOCULAR PRESSURE LOWERING AGENT, A NEUROTROPHIC AGENT, A C-TYPE NATRIURETIC PEPTIDE, A NATRIURETIC PEPTIDE RECEPTOR-B, AN APOPTOSIS SIGNALING FRAGMENT INHIBITOR OR A FAS-LIGAND INHIBITOR FOR TREATING GLAUCOMA OR OCULAR HYPERTENSION” (Cella Therapeutics, LLC, priority 2020, published 2023).

Structures are written as SMILES.

Consider `O=C(O)CCC/C=C\C[C@@H]1[C@@H](/C=C/[C@@H](O)CCc2ccccc2)[C@H](O)C[C@@H]1O` [bimatoprost acid], for which the “reduction in IOP compared with the fellow eye” value reads like this: (100 ng intravitreal, one of four animals (B392) responded, at 1 timepoint) 30%; (200 ng intravitreal, three of four animals responded, at 1 or more timepoints) 30%. The “IOP reduced in the treated eye compared with the fellow eye receiving PBS” value (200 ng intravitreal, animal B392, day 5) is 52%. For the same compound, the IOP response entry (animal B300, 100 ng and 200 ng intravitreal) is “did not respond to either dose”. Also, the “IOP lowering effect, overall conclusion” value (intravitreal, dose-response between the 100 ng and 200 ng doses) is listed as “clear IOP lowering-effect”.
